Series [1] has as its system DLBCL cell lines. The series can be described thus: In vitro activity against DLBCL cell lines. The series is classed as cell-based. The note with it: used individually.
Series [2] can be described thus: Tolerability (body weight change) in SUDHL4 tumor-bearing mice. The note with it: Study 1. The series is classed as in vivo, female CB.17 SCID mice. How it is done: (§1) For the experiments described below, SUDHL4 human GCB-DLBCL tumor cells (10×10^6/mouse) were implanted subcutaneously into female CB.17 SCID mice. Mice were randomized into groups of 5 for efficacy and tolerability assessments based on tumor volume and treated with either vehicles (10% DMSO/25% Kleptose pH=5 (Vehicle 1) and 10% ethanol/30% PEG 400/60% Phosal PG-50 (Vehicle 2)), 130 mg/kg or 45 mg/kg capivasertib, 100 mg/kg venetoclax or the combination of capivasertib and venetoclax. Capivasertib was formulated in 10% DMSO/25% Kleptose pH=5 and venetoclax was formulated in 10% ethanol/30% PEG 400/60% Phosal PG-50. All agents were dosed by oral gavage at a 5 ml/kg dose volume according to schedules described, following tumor cell implantation. Tumor length and width was measured by caliper and tumor volume was calculated using the formula (length×width^2)*π/6.

Series [3] deals with SUDHL4 human GCB-DLBCL tumor cells. Put plainly: SUDHL4 xenograft efficacy (tumor volume, TGI, regression). It counts as in vivo, female CB.17 SCID mice. As to conditions: Study 1. As for the experimental part: as §1
The mark [4] stands for this setting: capivasertib 130 mg/kg PO BID 10/14 4 days on/3 days off x 22 days.
Where [5] appears, read: venetoclax 100 mg/kg PO QD (continuous) x 22 days.

The structures appear in SMILES notation.

A word on the TGI: it is the reduction of tumour growth relative to the control group. Regarding `NC1(C(=O)N[C@@H](CCO)c2ccc(Cl)cc2)CCN(c2ncnc3[nH]ccc23)CC1` [Capivasertib, (S)-4-amino-N-(1-(4-chlorophenyl)-3-hydroxypropyl)-1-(7H-pyrrolo[2,3-d]pyrimidin-4-yl)piperidine-4-carboxamide], the “Activity against DLBCL cell lines” value in series [1] is “have activity”. Moreover, the “Max avg body weight loss” value in series [2] (setting [4]) amounted to 6%. The Regression in series [3] (setting [4]) was 0%. Also, the TGI stood at 82% in series [3] (setting [4]) and 82% in series [3] (capivasertib 130 mg/kg PO BID 10/14 4 days on/3 days off x 22 days, listed as capivasertib).
For the molecule `CC1(C)CCC(CN2CCN(c3ccc(C(=O)NS(=O)(=O)c4ccc(NCC5CCOCC5)c([N+](=O)[O-])c4)c(Oc4cnc5[nH]ccc5c4)c3)CC2)=C(c2ccc(Cl)cc2)C1` [Venetoclax, 4-(4-{[2-(4-chlorophenyl)-4,4-dimethylcyclohex-1-en-1-yl]methyl}piperazin-1-yl)-N-({3-nitro-4-[(tetrahydro-2H-pyran-4-ylmethyl)amino]phenyl}sulfonyl)-2-(1H-pyrrolo[2,3-b]pyridin-5-yloxy)benzamide], the “Activity against DLBCL cell lines” value in series [1] was “have activity”. Also, the “Max avg body weight loss” value in series [2] (setting [5]) is on record as 2%. In series [3] (setting [5]), the Regression was 0% and the TGI was 42%. Further, the TGI in series [3] (venetoclax 100 mg/kg PO QD (continuous) x 22 days, listed as venetoclax) amounted to 42%.

For the origin of these results see patent publication US20250381190A1, “THERAPEUTIC COMBINATIONS OF CAPIVASERTIB AND VENETOCLAX” (AstraZeneca AB, priority 2022, published 2025).
